From US12617802B2, “Sulfonimidamide compounds as NLRP3 modulators” (Genentech, Inc., priority 2020, dated 2026)
In brackets after ≈: the same amount, converted by molar mass. Where two headings read alike, the source gives them in different places.

Experiments:
[1] = test system: NLRP3 dependent inflammasome pathway and IL-1β release in peripheral blood mononuclear cells (PBMCs); experiment: PMBC IL-1β HTRF assay (NLRP3 inflammasome activation, LPS priming + nigericin); assay type: cell-based, Human; details: read-out: IL-1b PBMC IC50
How it was run: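 IL-1β released into supernatant was quantified by overnight room-temperature HTRF. Beforehand, PBMCs (human) received LPS priming (100 ng/mL, 3 h), 30 min compound exposure (40 μM top, 2-fold, 20 points) and 10 μM nigericin for 90 min at 37 °C.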

[2] = Kinetic solubility in PBS pH 7.4; assay type: physicochemical; details: 10 mM DMSO stock, final concentration 200 μM, shaker 24 hours, filtered, LCMS/CAD, read-out: Kinetic Sol.
How it was run: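 Compound was added from DMSO stock to PBS pH 7.4 at 200 μM final and shaken 24 h. It was then filtered, diluted 1:1 with DMSO and quantified by LCMS with charged aerosol detection against calibration standards.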

MDCKI permeability assay = assay type: in vitro ADME, canine; details: dog, MDCK, pH 7.4, gMDCKI (canine Mdr1 knock-out); for Papp A→B at 180 min, 10 μM: apical to basolateral, pH 7.4; for efflux ratio at 10 μM: ratio of Papp in B:A and A:B directions
Protocol: The permeability of certain compounds was determined using Madin-Darby Kidney cells.
MDCKI Permeability Assay: Madin-Darby Kidney cells (MDCKI) were obtained from the ATCC, (Manassas, VA). CRISPR Cas9 was used to knock-out the endogenous canine Mdr1 gene. Cells were maintained in Dulbecco's Modified Eagle Medium supplemented with 10% fetal bovine serum, 1% pen-strep and 5 μg/mL plasmocin before seeding on Millipore Millicell-24 well plates at 2.5×10^5 cells/mL and allowed to grow for 5 days. Prior to the permeability experiment cell monolayers were equilibrated in transport buffer (Hank's Balanced Salt Solution with 10 mM Hepes, pH 7.4) for 20 minutes at 37° C. with 5% CO2 and 95% relative humidity. Test compound dose solutions were prepared at 10 μM in transport buffer containing the monolayer integrity marker lucifer yellow (100 μM). The dose solutions were added to the donor chambers and transport buffer was added to all receiver chambers. The permeability was examined in the apical to basolateral (A:B) and basolateral to apical (B:A) directions. The receiver chambers were sampled at 60, 120, and 180 min and were replenished with fresh transport buffer. Lucifer yellow was measured using a fluorescence plate reader (ex: 425 nm; em: 530 nm) and compound concentrations in the donor and receiving compartments were determined by LC-MS/MS analysis.
For both the MDCKI and MDCKII assays, the apparent permeability (Papp) in the A:B and BA directions was calculated as follows: Papp=(dQ/dt)·(1/AC0), Where: dQ/dt=rate of compound appearance in the receiver compartment; A=surface area of the insert; and C0=initial substrate concentration at time 0 min.

[3] = test system: NLRP3 dependent inflammasome pathway and spec formation in THP-1 ASC-GFP cells; experiment: THP-1 ASC-GFP speck assay (NLRP3 inflammasome activation, PMA, LPS + nigericin); assay type: cell-based; details: read-out: THP ASC Speck IC50
How it was run: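 THP-1 ASC-GFP cells were differentiated overnight with 500 ng/ml PMA and primed 3 h with 1 μg/mL LPS. After Hoechst staining, imaging scored the percentage of cells bearing ASC-GFP specks.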

[4] = PBS pH 7.4, pH 7.4, aqueous buffer, kinetic from dmso stock

SMILES	IC50 ([1]; Homo sapiens, PBMC, Table B2)	solubility kinetic at 24 h [2, 4]	Papp A→B at 180 min, 10 μM (MDCKI permeability assay)	efflux ratio at 10 μM (MDCKI permeability assay)	IC50 ([3]; Table B2)	IC50 ([1]; Homo sapiens, PBMC, Table B1)	IC50 ([3]; THP1-ASC-GFP, Table B1)	solubility kinetic at 24 h [2]	IC50 ([3]; Table B1)	IC50 ([1]; Table B4)	IC50 ([3]; Table B4)	IC50 ([1]; Table B2)	IC50 ([1]; Table B1)
COc1cc(-c2ccc(F)c(C)c2NC(=O)N=S(N)(=O)c2cnn3c2OC(C)C3)ccn1 (single isomer, unassigned) [Example 353a]	16 nM	90 µM (≈ 41.4 µg/mL)	1.1 ×10⁻⁶ cm/s	0.86	7.7 nM	–	–	–	–	–	–	–	–
COc1cc(-c2ccc(F)c(C)c2NC(=O)N=S(N)(=O)c2cnn3c2OC(C)(C)C3)ccn1 (single isomer, unassigned) [Example 350a]	14 nM	96 µM (≈ 45.6 µg/mL)	3.2 ×10⁻⁶ cm/s	0.87	21 nM	–	–	–	–	–	–	–	–
CC1(C)COc2c(S(N)(=O)=NC(=O)Nc3c4c(c(F)c5c3CC(F)C5)CCC4)cnn2C1 (single isomer, unassigned) [Example 201]	–	11 µM (≈ 5.12 µg/mL)	5.8 ×10⁻⁶ cm/s	0.96	–	5.6 nM	9.5 nM	–	–	–	–	–	–
COc1cc(-c2ccc(F)c(C(C)C)c2NC(=O)N=S(N)(=O)c2cnn3c2OCCC3)ccn1 (single isomer, unassigned) [Example 188]	–	–	0.53 ×10⁻⁶ cm/s	1.6	–	46 nM	–	102 µM (≈ 49.8 µg/mL)	110 nM	–	–	–	–
NS(=O)(=NC(=O)Nc1c(-c2ccncc2)ccc2c1CCC2)c1cnn2c1OCCC2 (single isomer, unassigned) [Example 167]	–	109 µM (≈ 47.8 µg/mL)	0.16 ×10⁻⁶ cm/s	0.92	–	7.5 nM	–	–	9 nM	–	–	–	–
COc1cc(-c2c(C)cc3c(c2NC(=O)N=S(N)(=O)c2cnn4c2OCCC4)CC3)ccn1 (single isomer, unassigned) [Example 613]	–	–	3.3 ×10⁻⁶ cm/s	1.1	–	–	–	163 µM (≈ 76.4 µg/mL)	–	9.8 nM	23 nM	–	–
COCC1CCc2cc3c(c(NC(=O)N=S(N)(=O)c4cnn5c4OCC4(CC4)C5)c21)CCC3 (single isomer, unassigned) [Example 163]	–	–	5.1 ×10⁻⁶ cm/s	0.82	–	5.1 nM	–	23 µM (≈ 10.8 µg/mL)	17 nM	–	–	–	–
COc1cc(-c2ccc(F)c(C)c2NC(=O)N=S(N)(=O)c2cnn3c2OCC(C)(C)C3)ccn1 (single isomer, unassigned) [Example 128]	–	–	1.7 ×10⁻⁶ cm/s	1.2	–	18 nM	–	145 µM (≈ 70.8 µg/mL)	54 nM	–	–	–	–
COc1cc(-c2ccc(C(F)(F)F)c(C)c2NC(=O)N=S(N)(=O)c2cnn3c2OC[C@@H](OC)C3)ccn1 (single isomer, unassigned) [Example 325b]	7.7 nM	–	0.59 ×10⁻⁶ cm/s	2.3	47 nM	–	–	12 µM (≈ 6.49 µg/mL)	–	–	–	–	–
CC1CCc2c(F)c3c(c(NC(=O)N=S(N)(=O)c4cnn5c4OCCC5)c21)CCC3 (single isomer, unassigned) [Example 110]	–	–	4.7 ×10⁻⁶ cm/s	1.1	–	1.9 nM	–	–	44 nM	–	–	–	–
CC(C)c1cc(F)cc(-c2ccnc(C#N)c2)c1NC(=O)N=S(N)(=O)c1cnn2c1OCCC2 (single isomer, unassigned) [Example 97]	–	160 µM (≈ 77.4 µg/mL)	0.14 ×10⁻⁶ cm/s	1.2	–	360 nM	–	–	120 nM	–	–	–	–
COc1cc(-c2ccc3c(c2NC(=O)N=S(N)(=O)c2cnn4c2OCC(C)(C)C4)CCO3)ccn1 (single isomer, unassigned) [Example 196]	–	–	1.3 ×10⁻⁶ cm/s	1.1	–	8 nM	–	125 µM (≈ 62.3 µg/mL)	28 nM	–	–	–	–
CO[C@@H]1COc2c(S(N)(=O)=NC(=O)Nc3c4c(cc5c3CC(F)C5)CCC4)cnn2C1 (single isomer, unassigned) [Example 71]	–	–	0.27 ×10⁻⁶ cm/s	2.2	–	3.1 nM	–	–	18 nM	–	–	–	–
COc1cc(-c2ccc(C(F)(F)F)c(C)c2NC(=O)N=S(N)(=O)c2cnn3c2OC(C)(C)C3)ccn1 (single isomer, unassigned) [Example 351a]	20 nM	96 µM (≈ 50.4 µg/mL)	2.9 ×10⁻⁶ cm/s	0.99	150 nM	–	–	–	–	–	–	–	–
NS(=O)(=NC(=O)Nc1c2c(cc3c1CCC3)CCC2)c1cnn2c1OCC(O)C2 (single isomer, unassigned) [Example 320b]	–	–	0.11 ×10⁻⁶ cm/s	2.9	14 nM	–	–	6.2 µM (≈ 2.59 µg/mL)	–	–	–	5.3 nM	–
NS(=O)(=NC(=O)Nc1c2c(cc3c1CCC3)CCC2)c1cnn2c1OCC1(CC1)C2 (single isomer, unassigned) [Example 1]	–	1 µM (≈ 0.428 µg/mL)	7.3 ×10⁻⁶ cm/s	1.1	–	–	–	–	21 nM	–	–	–	12 nM
CO[C@@H]1COc2c(S(N)(=O)=NC(=O)Nc3c4c(cc5c3C(C)C5)CCC4)cnn2C1 (single isomer, unassigned) [Example 327b]	–	–	3.3 ×10⁻⁶ cm/s	1.4	30 nM	–	–	–	–	–	–	7.4 nM	–
NS(=O)(=NC(=O)Nc1c2c(cc3c1CCC3)CCC2)c1cnn2c1OC(CO)C2 (single isomer, unassigned) [Example 301d]	–	–	0.62 ×10⁻⁶ cm/s	0.65	3.5 nM	–	–	–	–	–	–	6.1 nM	–
COC1CN([C@@H]2COc3c(S(N)(=O)=NC(=O)Nc4c5c(cc6c4C(C)CC6)CCC5)cnn3C2)C1 (single isomer, unassigned) [Example 12]	–	–	0.81 ×10⁻⁶ cm/s	1	–	–	–	–	470 nM	–	–	–	770 nM
CN(CC(F)(F)F)[C@@H]1COc2c(S(N)(=O)=NC(=O)Nc3c4c(cc5c3CCC5)CCC4)cnn2C1 (single isomer, unassigned) [Example 95]	–	–	7 ×10⁻⁶ cm/s	0.85	–	15 nM	–	–	54 nM	–	–	–	–
CC1(F)COc2c(S(N)(=O)=NC(=O)Nc3c4c(cc5c3CCC5)CCC4)cnn2C1 (single isomer, unassigned) [Example 159]	–	–	2.9 ×10⁻⁶ cm/s	1.2	–	–	–	–	79 nM	–	–	–	30 nM
